Assay results from patent US20220081421A1, “ANTIBACTERIAL COMPOUNDS” (Forge Therapeutics, Inc., priority 2018, published 2022).
Values after ≈ are worked out from the molar mass of the structure shown.

What was measured:
E. coli = experiment: MIC by broth microdilution (CLSI), E. coli; assay type: cell-based; conditions: broth microdilution, cation adjusted Mueller-Hinton Broth, 35° C., 18-24 h; for MIC: Escherichia coli, read-out: E. coli MIC
Procedure: (§1) Minimal inhibitory concentrations (MIC) were determined by the broth microdilution method in accordance with the Clinical and Laboratory Standards Institute (CLSI) guidelines. In brief, organism suspensions were adjusted to a 0.5 McFarland standard to yield a final inoculum between 3×10^5 and 7×10^5 colony-forming units (CFU)/mL. Drug dilutions and inocula were made in sterile, cation adjusted Mueller-Hinton Broth (Beckton Dickinson). An inoculum volume of 100 μL was added to wells containing 100 μL of broth with 2-fold serial dilutions of drug. All inoculated microdilution trays were incubated in ambient air at 35° C. for 18-24 h. Following incubation, the lowest concentration of the drug that prevented visible growth (OD600 nm<0.05) was recorded as the MIC. Performance of the assay was monitored by the use of laboratory quality-control strains and levofloxacin, a compound with a defined MIC spectrum, in accordance with CLSI guidelines.

K. pneumoniae = experiment: MIC by broth microdilution (CLSI), K. pneumoniae; assay type: cell-based; conditions: broth microdilution, cation adjusted Mueller-Hinton Broth, 35° C., 18-24 h; for MIC: Klebsiella pneumoniae, read-out: K. pneumoniae MIC
Procedure: as §1

| Compound | MIC (E. coli) [µg/mL] | MIC (K. pneumoniae) [µg/mL] | E. coli MIC (E. coli) | K. pneumoniae MIC (K. pneumoniae) |
| --- | --- | --- | --- | --- |
| O=C(NCC(F)F)C(Cc1ccc(C#CC#CC2CC2)c(F)c1)c1nc[nH]c(=O)c1O (stereo not drawn) [Compound 61, 3-(4-(cyclopropylbuta-1,3-diyn-1-yl)-3-fluorophenyl)-N-(2,2-difluoroethyl)-2-(5-hydroxy-6-oxo-1,6-dihydropyrimidin-4-yl)propanamide] | 1 to 8 (≈ 2.33 to 18.6 µM) | 1 to 8 (≈ 2.33 to 18.6 µM) | – | – |
| O=c1[nH]cnc(CCc2ccc(C#Cc3ccc(CN4CCOCC4)cc3)cn2)c1O [Compound 19, 5-hydroxy-6-(2-(5-((4-(morpholinomethyl)phenyl)ethynyl)pyridin-2-yl)ethyl)pyrimidin-4(3H)-one] | < 1 | 1 to 8 (≈ 2.4 to 19.2 µM) | – | – |
| O=c1ccoc(CC(CO)c2ccc(C#Cc3ccc(CN4CCOCC4)cc3)cc2)c1O (stereo not drawn) [Compound 137, 3-hydroxy-2-(3-hydroxy-2-(4-((4-(morpholinomethyl)phenyl)ethynyl)phenyl)propyl)-4H-pyran-4-one] | 1 to 8 (≈ 2.24 to 18 µM) | 1 to 8 (≈ 2.24 to 18 µM) | – | – |
| C=CCNCC(Cc1ccc(C#CC#Cc2cn[nH]c2)cc1)c1nc[nH]c(=O)c1O (stereo not drawn) [Compound 67, 6-(1-(4-((1H-pyrazol-4-yl)buta-1,3-diyn-1-yl)phenyl)-3-(allylamino)propan-2-yl)-5-hydroxypyrimidin-4(3H)-one] | 8 to 32 (≈ 20 to 80.1 µM) | > 32 | – | – |
| C=CCNCC(Cc1ccc(C#CC#Cc2cnc(C)nc2)cc1)c1nc[nH]c(=O)c1O (stereo not drawn) [Compound 37, 6-(1-(allylamino)-3-(4-((2-methylpyrimidin-5-yl)buta-1,3-diyn-1-yl)phenyl)propan-2-yl)-5-hydroxypyrimidin-4(3H)-one] | 8 to 32 (≈ 18.8 to 75.2 µM) | > 32 | – | – |
| CC(Cc1ccc(C#Cc2ccc(CN3CCOCC3)cc2)cc1)c1nc[nH]c(=O)c1O (stereo not drawn) [Compound 104, 5-hydroxy-6-(1-(4-((4-(morpholinomethyl)phenyl)ethynyl)phenyl)propan-2-yl)pyrimidin-4(3H)-one] | 1 to 8 (≈ 2.33 to 18.6 µM) | 1 to 8 (≈ 2.33 to 18.6 µM) | – | – |
| C=CCNCC(Cc1ccc(C#CC#Cc2ccc(C(=O)O)cc2)cc1)c1nc[nH]c(=O)c1O (stereo not drawn) [Compound 35, 4-((4-(3-(allylamino)-2-(5 hydroxy-6-oxo-1,6-dihydropyrimidin-4-yl)propyl)phenyl)buta-1,3-diyn-1-yl)benzoic acid] | 1 to 8 (≈ 2.21 to 17.6 µM) | > 32 | – | – |
| O=C(NCCO)c1ccc(C#CC#Cc2ccc(CC(CO)c3nc[nH]c(=O)c3O)cc2)cc1 (stereo not drawn) [Compound 32, 4-((4-(3-hydroxy-2-(5-hydroxy-6-oxo-1,6-dihydropyrimidin-4-yl)propyl)phenyl)buta-1,3-diyn-1-yl)-N-(2-hydroxyethyl)benzamide] | 1 to 8 (≈ 2.19 to 17.5 µM) | 1 to 8 (≈ 2.19 to 17.5 µM) | – | – |
| O=c1[nH]cnc(CCc2ccc(C#Cc3ncccn3)cc2)c1O [Compound 14, 5-hydroxy-6-(4-(pyrimidin-2-ylethynyl)phenethyl) pyrimidin-4(3H)-one] | 8 to 32 (≈ 25.1 to 101 µM) | > 32 | – | – |
| O=c1ccoc(CNc2ccc(C#Cc3ccc(CN4CCOCC4)cc3)cc2)c1O [Compound 109, 3-hydroxy-2-(((4-((4-(morpholinomethyl)phenyl)ethynyl)phenyl)amino)methyl)-4H-pyran-4-one] | 1 to 8 (≈ 2.4 to 19.2 µM) | 8 to 32 (≈ 19.2 to 76.8 µM) | – | – |
| N#Cc1ccc(-c2ccc(CC(C(=O)NCC(F)F)c3nc[nH]c(=O)c3O)cc2)cc1 (stereo not drawn) [Compound 39, 3-(4′-cyano-[1,1′-biphenyl]-4-yl)-N-(2,2-difluoroethyl)-2-(5-hydroxy-6-oxo-1,6-dihydropyrimidin-4-yl)propanamide] | > 32 | > 32 | – | – |
| O=c1[nH]cnc(CNc2ccc(C#Cc3ccc(CN4CCOCC4)cc3)cc2)c1O [Compound 108, 5-hydroxy-6-(((4-((4-(morpholinomethyl)phenyl)ethynyl)phenyl)amino)methyl) pyrimidin-4(3H)-one] | 1 to 8 (≈ 2.4 to 19.2 µM) | > 32 | – | – |
| OCC(Cc1nncc(O)c1O)c1ccc(C#Cc2ccc(CN[C@H]3CCOC3)cc2)cc1 (single isomer, unassigned) [Compound 101] | – | – | B (B: >1 μg/mL to ≤8.0 μg/mL) | B (B: >1 μg/mL to ≤8.0 μg/mL) |
| C=CCNCC(Cc1ccc(C#CC#Cc2ccccc2N)cc1)c1nc[nH]c(=O)c1O (stereo not drawn) [Compound 36, 6-(1-(allylamino)-3-(4-((2-aminophenyl)buta-1,3-diyn-1-yl)phenyl)propan-2-yl)-5-hydroxypyrimidin-4(3H)-one] | 8 to 32 (≈ 18.8 to 75.4 µM) | > 32 | – | – |
| N#CCC(Cc1ccc(C#Cc2ccc(CN3CCOCC3)cc2)cc1)c1nc[nH]c(=O)c1O (stereo not drawn) [Compound 106, 3-(5-hydroxy-6-oxo-1,6-dihydropyrimidin-4-yl)-4-(4-((4-(morpholinomethyl)phenyl)ethynyl)phenyl)butanenitrile] | 1 to 8 (≈ 2.2 to 17.6 µM) | 1 to 8 (≈ 2.2 to 17.6 µM) | – | – |
| Nc1ncc(C#Cc2ccc(CC(C(=O)NCC(F)F)c3nc[nH]c(=O)c3O)cc2)cn1 (stereo not drawn) [Compound 24, 3-(4-((2-aminopyrimidin-5-yl)ethynyl)phenyl)-N-(2,2-difluoroethyl)-2-(5-hydroxy-6-oxo-1,6-dihydropyrimidin-4-yl)propanamide] | > 32 | > 32 | – | – |
| Cc1ncc(C#Cc2ccc(CC(C(=O)NCC(F)F)c3nc[nH]c(=O)c3O)cc2)cn1 (stereo not drawn) [Compound 25, N-(2,2-difluoroethyl)-2-(5-hydroxy-6-oxo-1,6-dihydropyrimidin-4-yl)-3-(4-((2-methylpyrimidin-5-yl)ethynyl)phenyl)propanamide] | > 32 | > 32 | – | – |
| COC(=O)NCC(Cc1ccc(C#Cc2ccc(CN3CCOCC3)cc2)cn1)c1nc[nH]c(=O)c1O (stereo not drawn) [Compound 29, methyl (2-(5-hydroxy-6-oxo-1,6-dihydropyrimidin-4-yl)-3-(5-((4-(morpholinomethyl)phenyl)ethynyl)pyridin-2-yl)propyl)carbamate] | > 32 | > 32 | – | – |
| C=C(Cc1ccc(C#Cc2ccc(CN3CCOCC3)cc2)cc1)c1nc[nH]c(=O)c1O [Compound 105, 5-hydroxy-6-(3-(4-((4-(morpholinomethyl)phenyl)ethynyl)phenyl)prop-1-en-2-yl)pyrimidin-4(3H)-one] | 1 to 8 (≈ 2.34 to 18.7 µM) | 1 to 8 (≈ 2.34 to 18.7 µM) | – | – |
| CO/N=C(\C)C(Cc1ccc(C#Cc2ccc(CN3CCOCC3)cc2)cc1)c1ncnc(O)c1O (stereo not drawn) [Compound 116, (E)-3-(5,6-dihydroxypyrimidin-4-yl)-4-(4-((4-(morpholinomethyl)phenyl)ethynyl)phenyl)butan-2-one O-methyl oxime] | 8 to 32 (≈ 16.4 to 65.8 µM) | > 32 | – | – |
| O=c1[nH]cnc(C2CC2c2ccc(C#Cc3ccc(CN[C@@H]4CCNC4)cc3)cc2)c1O (stereo partly drawn) [Compound 103, 5-hydroxy-6-(2-(4-((4-((((R)-pyrrolidin-3-yl)amino)methyl)phenyl)ethynyl)phenyl)cyclopropyl) pyrimidin-4(3H)-one] | 1 to 8 (≈ 2.34 to 18.8 µM) | > 32 | – | – |
| O=c1[nH]cnc(CCc2ccc(C#Cc3ccncc3)cc2)c1O [Compound 18, 5-hydroxy-6-(4-(pyridin-4-ylethynyl)phenethyl) pyrimidin-4(3H)-one] | < 1 | > 32 | – | – |
| O=c1[nH]cnc(C(CNCCF)Cc2ccc(C#Cc3ccc(CN4CCOCC4)cn3)cc2)c1O (stereo not drawn) [Compound 30, 6-(1-((2-fluoroethyl)amino)-3-(4-((5-(morpholinomethyl)pyridin-2-yl)ethynyl)phenyl)propan-2-yl)-5-hydroxypyrimidin-4(3H)-one] | > 32 | > 32 | – | – |
| O=C(NCC(F)F)C(Cc1ccc(-c2ccc(-n3cccn3)cc2)cc1)c1nc[nH]c(=O)c1O (stereo not drawn) [Compound 38, 3-(4′-(1H-pyrazol-1-yl)-[1,1-biphenyl]-4-yl)-N-(2,2-difluoroethyl)-2-(5-hydroxy-6-oxo-1,6-dihydropyrimidin-4-yl)propanamide] | > 32 | > 32 | – | – |
| O=c1[nH]cnc(CCc2ccc(C#Cc3ccc(CN4CCOCC4)nc3)cc2)c1O [Compound 17, 5-hydroxy-6-(4-((6-(morpholinomethyl)pyridin-3-yl)ethynyl)phenethyl) pyrimidin-4(3H)-one] | < 1 | 1 to 8 (≈ 2.4 to 19.2 µM) | – | – |
| N#CCC(Cc1ccc(C#Cc2ccc(CN[C@H]3CCOC3)cc2)cc1)c1nc[nH]c(=O)c1O (stereo partly drawn) [Compound 107, 3-(5-hydroxy-6-oxo-1,6-dihydropyrimidin-4-yl)-4-(4-((4-((((S)-tetrahydrofuran-3-yl)amino)methyl)phenyl)ethynyl)phenyl)butanenitrile] | 1 to 8 (≈ 2.2 to 17.6 µM) | 8 to 32 (≈ 17.6 to 70.4 µM) | – | – |
| C=C(Cc1ccc(C#CC#Cc2ccc(C(=O)N3CCN(C)CC3)cc2)cc1)c1nc[nH]c(=O)c1O [Compound 33, 5-hydroxy-6-(3-(4-((4-(4-methylpiperazine-1-carbonyl)phenyl)buta-1,3-diyn-1-yl)phenyl)prop-1-en-2-yl)pyrimidin-4(3H)-one] | 1 to 8 (≈ 2.09 to 16.7 µM) | 1 to 8 (≈ 2.09 to 16.7 µM) | – | – |
| O=c1[nH]cnc(C2(Cc3ccc(C#Cc4ccc(CNC5CCOC5)cc4)cc3)CC2)c1O (stereo not drawn) [Compound 136, 5-hydroxy-6-(1-(4-((4-(((tetrahydrofuran-3-yl)amino)methyl)phenyl)ethynyl)benzyl)cyclopropyl)pyrimidin-4(3H)-one] | 1 to 8 (≈ 2.26 to 18.1 µM) | 8 to 32 (≈ 18.1 to 72.5 µM) | – | – |
| O=c1[nH]cnc(C2(Cc3ccc(C#Cc4ccc(CN5CCOCC5)cc4)cc3)CC2)c1O [Compound 135, 5-hydroxy-6-(1-(4-((4-(morpholinomethyl)phenyl)ethynyl)benzyl)cyclopropyl) pyrimidin-4(3H)-one] | 8 to 32 (≈ 18.1 to 72.5 µM) | > 32 | – | – |
| O=c1cccc(CC(CO)c2ccc(C#Cc3ccc(CN4CCOCC4)cc3)cc2)n1O (stereo not drawn) [Compound 138, 1-hydroxy-6-(3-hydroxy-2-(4-((4-(morpholinomethyl)phenyl)ethynyl)phenyl)propyl)pyridin-2(1H)-one] | 8 to 32 (≈ 18 to 72 µM) | 8 to 32 (≈ 18 to 72 µM) | – | – |
